According to PubChem BioAssay (NCI):
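Values below derive from 48-hour exposures of cells grown in 96-well plates, with endpoints linearly interpolated between the two concentrations bracketing the appropriate inhibition level. GI50 is the concentration that inhibits growth by half. Definition used: TGI = concentration required for complete inhibition of growth.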

Legend:
Experiment in all cases: NCI anticancer screen, dose series, 48 h
A549 NSCLC = test system: A549 NSCLC
HT29 colon = test system: HT29 colon
K-562 leukemia = test system: K-562 leukemia
OVCAR-5 ovarian = test system: OVCAR-5 ovarian
OVCAR-8 ovarian = test system: OVCAR-8 ovarian
SK-MEL-28 melanoma = test system: SK-MEL-28 melanoma
SK-OV-3 ovarian = test system: SK-OV-3 ovarian
TK-10 renal = test system: TK-10 renal
UO-31 renal = test system: UO-31 renal
SK-MEL-2 melanoma = test system: SK-MEL-2 melanoma

SMILES | TGI (A549 NSCLC) | TGI (HT29 colon) | TGI (K-562 leukemia) | TGI (OVCAR-5 ovarian) | TGI (OVCAR-8 ovarian) | TGI (SK-MEL-28 melanoma) | TGI (SK-OV-3 ovarian) | TGI (TK-10 renal) | TGI (UO-31 renal) | TGI (SK-MEL-2 melanoma) | GI50 (A549 NSCLC) | GI50 (HT29 colon) | GI50 (K-562 leukemia) | GI50 (OVCAR-5 ovarian) | GI50 (OVCAR-8 ovarian) | GI50 (SK-MEL-2 melanoma) | GI50 (SK-MEL-28 melanoma) | GI50 (TK-10 renal) | GI50 (UO-31 renal)
N#Cc1c(NC(=S)NC(=O)c2ccccc2)nc2c(c1-c1ccccc1)CCCC2 | > 100 µM | > 100 µM | > 100 µM | > 100 µM | > 100 µM | > 100 µM | 86.3 µM | > 100 µM | > 100 µM |  |  |  |  |  |  |  |  |  | 
CCC(C)C(=O)c1c(O)c(C/C=C(\C)CCC=C(C)C)c(O)c2c(C(O)CC)cc(=O)oc12 (stereo not given) | 11.4 µM | 3.62 µM | 3.31 µM | 17.9 µM |  | 5.57 µM | 10.8 µM | 13.1 µM | 6.95 µM | 3.83 µM |  |  |  |  |  |  |  |  | 
Brc1ccccc1-c1ncc(-c2ccccc2)o1 | > 100 µM | > 100 µM | > 100 µM | > 100 µM | > 100 µM | > 100 µM | > 100 µM | > 100 µM | > 100 µM | 89.9 µM |  |  |  |  |  |  |  |  | 
O=[N+]([O-])c1cn[n+]([O-])c2ccccc12 | 30.1 µM | 35.2 µM |  | 25.6 µM | 11.6 µM | 26.1 µM | 26.3 µM | 25.8 µM |  |  |  |  |  |  |  |  |  |  | 
CC[n+]1c(/C=C/c2ccc(N(CCCl)CCCl)cc2)ccc2cc(NC(=O)/C=C/c3ccccc3)ccc21 | 6.09 µM | 1.36 µM | 0.235 µM | 6.03 µM | 5.7 µM | 2.03 µM | 2.81 µM | 24.5 µM | 52.2 µM | 1.27 µM |  |  |  |  |  |  |  |  | 
COc1cc(C2c3cc4c(cc3[C@@H](Nc3cccc(C(C)=O)c3)C3COC(=O)[C@H]23)OCO4)cc(OC)c1O (stereo not given in full) | 1.99 µM | 6.53 µM | 6.1 µM | > 59.7 µM | > 28.9 µM | 50.6 µM | 5.28 µM |  | 6.89 µM | 7.43 µM |  |  |  |  |  |  |  |  | 
Cn1c(-c2ccc(/C=N\N3CCN(/N=C/c4ccc(-c5c[n+]6ccccc6n5C)cc4)CC3)cc2)c[n+]2ccccc12 | > 100 µM | > 100 µM |  | > 100 µM | > 100 µM |  | > 100 µM | > 100 µM | > 100 µM | > 100 µM |  |  |  |  |  |  |  |  | 
COc1ccc(-c2cc(N3CCN(c4ccccc4)CC3)c(C#N)c(=O)o2)cc1 | > 100 µM | > 100 µM | > 100 µM | > 100 µM | > 100 µM | 77.6 µM |  | 58 µM | 44.8 µM | 53.6 µM |  |  |  |  |  |  |  |  | 
COc1ccc(NC(=O)/C(=C/c2ccc(N(CCC#N)CCC#N)cc2)NC(=O)c2cc([N+](=O)[O-])ccc2Cl)cc1 | 89.7 µM |  | > 100 µM | > 100 µM | > 100 µM | > 100 µM | > 100 µM | > 100 µM | > 100 µM | > 100 µM |  |  |  |  |  |  |  |  | 
COc1ccc(NC(=O)/C(CC2=Nc3ccc([N+](=O)[O-])cc3NC2O)=N\NC(=O)C[N+](C)(C)C)c(OC)c1 (stereo not given) | > 100 µM | > 100 µM |  | > 100 µM | 69.8 µM | > 100 µM | > 100 µM | > 100 µM | > 100 µM | > 100 µM |  |  |  |  |  |  |  |  | 
NCc1ccc(C(=O)O)cc1 | > 100 µM | > 100 µM | > 100 µM | > 100 µM | > 100 µM | > 100 µM |  | > 100 µM | > 100 µM |  |  |  |  |  |  |  |  |  | 
Cc1nc2ccccc2c(=O)[nH]1 | > 100 µM | > 100 µM | > 100 µM | > 100 µM | > 100 µM | > 100 µM | > 100 µM | > 100 µM | > 100 µM | > 100 µM |  |  |  |  |  |  |  |  | 
ClCc1c(Cl)c(Cl)c(Cl)c(CCl)c1Cl | 16.3 µM | 3.3 µM | 4.37 µM | 4.18 µM | 6.03 µM | 3.96 µM |  | 2.89 µM | 3.12 µM | 5.07 µM | 4.8 µM | 1.79 µM | 1.8 µM | 1.93 µM | 2.51 µM | 2.2 µM | 1.95 µM | 1.56 µM | 1.63 µM
NCc1ccccc1C1CSCSC1 | > 100 µM | > 100 µM | > 100 µM |  | > 100 µM | > 100 µM | > 100 µM | > 100 µM | > 100 µM | > 100 µM |  |  |  |  |  |  |  |  | 
Cc1ccc(S(N)(=O)=O)cc1 | > 1000 µM | > 1000 µM | > 1000 µM | > 1000 µM | > 1000 µM |  | > 1000 µM | > 1000 µM | > 1000 µM | > 1000 µM |  |  |  |  |  |  |  |  | 
CCO/N=[N+](\[O-])N(CC)CC | > 100 µM | > 100 µM | > 100 µM | > 100 µM | > 100 µM | > 100 µM | > 100 µM | > 100 µM | > 100 µM | > 100 µM |  |  |  |  |  |  |  |  | 
CC(C)C[P+](c1ccccc1)(c1ccccc1)c1ccccc1 | > 100 µM | > 100 µM | > 100 µM | > 100 µM |  | > 100 µM | 87.4 µM | 66.5 µM | > 100 µM | 41.7 µM |  |  |  |  |  |  |  |  | 
CC(C)(Br)C1(O)CCCN1C(=O)c1ccccc1 (stereo not given) | > 100 µM | > 100 µM | > 100 µM | > 100 µM | > 100 µM | > 100 µM | > 100 µM | > 100 µM | > 100 µM | > 100 µM |  |  |  |  |  |  |  |  | 
CCOC(=O)/C=C(\C)c1ccc(OC)cc1 | > 100 µM | > 100 µM |  | > 100 µM | > 100 µM | > 100 µM |  | > 100 µM | > 100 µM | > 100 µM |  |  |  |  |  |  |  |  | 
